According to patent publication US20230293526A1, “METHOD FOR TREATING CANCER WITH A REVERSE TRANSCRIPTASE INHIBITOR” (PrimeFour Therapeutics, Inc., priority 2020, published 2023):

Tests used:
Test in all cases: Cell proliferation Ex.3
Format in all cases: cell-based
A673 = conditions: Homo sapiens
Procedure: (§1) A dose response relationship on cell proliferation was assessed for Compound 13 on 140 tumor cell lines. […] Cells were cultured in the appropriate media. For the assays, cells were seeded in white cell culture-treated flat and clear bottom multiwell plates and incubated at 37° C. overnight before compound was added. […] on the medium, cell plates were equilibrated to room temperature for one hour, CellTiterGlo reagent (Promega) was added and luminescence was measured approximately an hour later using a luminometer. Raw data were converted into percent cell viability relative to the high and low control, which were set to 10000 and 000, respectively.

SF295 = conditions: Homo sapiens, SF-295
Procedure: as §1

RAMOS = conditions: Homo sapiens
Procedure: as §1

A375 = conditions: Homo sapiens, A-375
Procedure: as §1

NCIH82 = conditions: Homo sapiens, NCI-H82
Procedure: as §1

SNB75 = conditions: Homo sapiens, SNB-75
Procedure: as §1

OVCAR3 = conditions: Homo sapiens, OVCAR-3
Procedure: as §1

MDAMB468 = conditions: Homo sapiens, MDA-MB-468
Procedure: as §1

MHHES1 = conditions: Homo sapiens, MHH-ES-1
Procedure: as §1

CLS439 = tested on: CLS439
Procedure: as §1

EFO21 = conditions: Homo sapiens, EFO-21
Procedure: as §1

RD = conditions: Homo sapiens
Procedure: as §1

SKBR3 = conditions: Homo sapiens, SK-BR-3
Procedure: as §1

786O = conditions: Homo sapiens
Procedure: as §1

A549 = conditions: Homo sapiens
Procedure: as §1

SU-DHL-10 = conditions: Homo sapiens, SU-DHL10
Procedure: as §1

NCIH358M = conditions: NCI-H358M
Procedure: as §1

UMUC3 = conditions: Homo sapiens
Procedure: as §1

TE671 = conditions: Homo sapiens, TE-671
Procedure: as §1

IGROV1 = conditions: Homo sapiens, IGROV-1
Procedure: as §1

ASPC1 = conditions: Homo sapiens
Procedure: as §1

HT1080 = conditions: Homo sapiens, HT-1080
Procedure: as §1

IMR90 = conditions: Homo sapiens, IMR-90
Procedure: as §1

SKHEP1 = conditions: Homo sapiens, SK-HEP1
Procedure: as §1

HEPG2 = conditions: Homo sapiens
Procedure: as §1

MDAMB436 = conditions: Homo sapiens, MDA-MB-436
Procedure: as §1

- IC50 (RAMOS; 72 h): 4040 nM
- IC50 (RAMOS; 120 h): 4 nM
- IC50 (RAMOS; 168 h): 1180 nM
- IC50 (A375; A375, 72 h): > 10 µM
- IC50 (A375; A375, 120 h): > 10 µM
- IC50 (A375; A375, 168 h): > 10 µM
- IC50 (OVCAR3; OVCAR3, 72 h): > 10 µM
- IC50 (OVCAR3; OVCAR3, 120 h): > 10 µM
- IC50 (OVCAR3; OVCAR3, 168 h): > 10 µM
- IC50 (MDAMB468; MDAMB468, 72 h): > 10 µM
- IC50 (MDAMB468; MDAMB468, 120 h): > 10 µM
- IC50 (MDAMB468; MDAMB468, 168 h): > 10 µM
- IC50 (SKBR3; SKBR3, 72 h): 1450 nM
- IC50 (SKBR3; SKBR3, 120 h): 960 nM
- IC50 (SKBR3; SKBR3, 168 h): 370 nM
- IC50 (A549; A549, 72 h): > 10 µM
- IC50 (A549; A549, 120 h): > 10 µM
- IC50 (A549; A549, 168 h): > 10 µM
- IC50 (SU-DHL-10; SU-DHL-10, 72 h): 0.14 µM
- IC50 (SU-DHL-10; SU-DHL-10, 120 h): 61.5 µM
- IC50 (SU-DHL-10; SU-DHL-10, 168 h): 3.86 µM
- IC50 (ASPC1; ASPC1, 72 h): > 10000 nM
- IC50 (ASPC1; ASPC1, 120 h): 720 nM
- IC50 (ASPC1; ASPC1, 168 h): 490 nM
- IC50 (HT1080; HT1080, 72 h): > 10 µM
- IC50 (HT1080; HT1080, 120 h): > 10 µM
- IC50 (HT1080; HT1080, 168 h): > 10 µM
- IC50 (SKHEP1; SKHEP1, 72 h): > 10 µM
- IC50 (SKHEP1; SKHEP1, 120 h): > 10 µM
- IC50 (SKHEP1; SKHEP1, 168 h): > 10 µM
- IC50 (HEPG2; HepG2, 72 h): > 10 µM
- IC50 (HEPG2; HepG2, 120 h): > 10 µM
- IC50 (HEPG2; HepG2, 168 h): > 10 µM
- IC50 (MDAMB436; MDAMB436, 72 h): > 10 µM
- IC50 (MDAMB436; MDAMB436, 120 h): > 10 µM
- IC50 (MDAMB436; MDAMB436, 168 h): > 10 µM
Compound: C#C[C@]1(CO)O[C@@H](n2cc(F)c(N)nc2=O)C[C@@H]1O [compound 9]
- IC50 (A673; A673, 72 h): > 10 µM
- IC50 (A673; A673, 120 h): > 10 µM
- IC50 (A673; A673, 168 h): > 10 µM
- IC50 (SF295; SF295, 72 h): > 10 µM
- IC50 (SF295; SF295, 120 h): > 10 µM
- IC50 (SF295; SF295, 168 h): > 10 µM
- IC50 (NCIH82; NCIH82, 72 h): > 10 µM
- IC50 (NCIH82; NCIH82, 120 h): 9.1 µM
- IC50 (NCIH82; NCIH82, 168 h): > 10 µM
- IC50 (SNB75; SNB75, 72 h): > 10 µM
- IC50 (SNB75; SNB75, 120 h): > 10 µM
- IC50 (SNB75; SNB75, 168 h): > 10 µM
- IC50 (MHHES1; MHHES1, 72 h): > 10 µM
- IC50 (MHHES1; MHHES1, 120 h): > 10 µM
- IC50 (MHHES1; MHHES1, 168 h): > 10 µM
- IC50 (CLS439; CLS439, 72 h): > 10 µM
- IC50 (CLS439; CLS439, 120 h): > 10 µM
- IC50 (CLS439; CLS439, 168 h): > 10 µM
- IC50 (EFO21; EFO21, 72 h): > 10 µM
- IC50 (EFO21; EFO21, 120 h): > 10 µM
- IC50 (EFO21; EFO21, 168 h): > 10 µM
- IC50 (RD; 72 h): > 10 µM
- IC50 (RD; 120 h): > 10 µM
- IC50 (RD; 168 h): > 10 µM
- IC50 (786O; 786-0, 72 h): > 10 µM
- IC50 (786O; 786-0, 120 h): > 10 µM
- IC50 (786O; 786-0, 168 h): > 10 µM
- IC50 (NCIH358M; 72 h): > 10 µM
- IC50 (NCIH358M; 120 h): > 10 µM
- IC50 (NCIH358M; 168 h): 0.67 µM
- IC50 (UMUC3; UMUC3, 72 h): > 10 µM
- IC50 (UMUC3; UMUC3, 120 h): > 10 µM
- IC50 (UMUC3; UMUC3, 168 h): > 10 µM
- IC50 (TE671; TE671, 72 h): > 10 µM
- IC50 (TE671; TE671, 120 h): > 10 µM
- IC50 (TE671; TE671, 168 h): > 10 µM
- IC50 (IGROV1; IGROV1, 72 h): > 10 µM
- IC50 (IGROV1; IGROV1, 120 h): > 10 µM
- IC50 (IGROV1; IGROV1, 168 h): > 10 µM
- IC50 (IMR90; IMR90, 72 h): > 10 µM
- IC50 (IMR90; IMR90, 120 h): > 10 µM
- IC50 (IMR90; IMR90, 168 h): > 10 µM
